From US9266883B2, “Ring-fused bicyclic pyridyl derivatives as FGFR4 inhibitors” (Novartis AG, priority 2013, dated 2016) come the findings set out here.

Experiment [1] concerns the target FGFR1 (407-822) (Homo sapiens (Human), UniProt P11362). The experiment in a line: In vitro biochemical assay for FGFR1.
Experiment [2] addresses FGFR4 (GST-FGFR4(388-802)) (Homo sapiens (Human), UniProt P22455). The experiment in a line: In-vitro biochemical kinase assay for FGFR4 (Caliper microfluidic mobility shift). To be noted: read-out: Biochemical FGFR4 IC50.
Experiment [3] deals with FGFR2 (406-821) (Homo sapiens (Human), UniProt P21802). Nature of the experiment: In vitro biochemical assay for FGFR2.
Experiment [4] concerns the target Tel-FGFR4 (Homo sapiens (Human), UniProt P22455). Nature of the experiment: In vitro cellular kinase assay for FGFR4 (BaF3-Tel-FGFR4 cells, MSD capture ELISA of tyrosine phosphorylation). Type of experiment: cell-based. To be noted: BaF3-Tel-FGFR4 cells, 1 hour incubation; read-out: Cellular BaF3 FGFR4 IC50.
Experiment [5] has as its target FGFR3 (411-806) (Homo sapiens (Human), UniProt P22607). The experiment in a line: In vitro biochemical assay for FGFR3.
Experiment [6] has as its system HuH-7 hepatocellular carcinoma cells. Nature of the experiment: CellTiter Glo (CTG) Assay. To be noted: Homo sapiens, Huh-7, 72 h, read-out: HUH7 proliferation (nM) CTG.

Chain of FGFR2 (406-821) (P21802 406-821): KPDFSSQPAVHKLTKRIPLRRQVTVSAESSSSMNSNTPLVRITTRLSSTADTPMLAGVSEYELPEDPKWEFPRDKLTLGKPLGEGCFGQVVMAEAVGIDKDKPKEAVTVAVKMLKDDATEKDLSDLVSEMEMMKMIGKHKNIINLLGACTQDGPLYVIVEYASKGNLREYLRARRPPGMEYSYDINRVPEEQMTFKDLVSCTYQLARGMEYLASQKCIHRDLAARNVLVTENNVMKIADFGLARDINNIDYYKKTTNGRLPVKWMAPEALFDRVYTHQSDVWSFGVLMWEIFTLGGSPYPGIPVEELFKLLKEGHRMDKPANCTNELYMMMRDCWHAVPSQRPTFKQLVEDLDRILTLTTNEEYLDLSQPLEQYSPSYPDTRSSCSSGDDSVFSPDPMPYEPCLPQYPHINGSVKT
Chain of FGFR3 (411-806) (P22607 411-806): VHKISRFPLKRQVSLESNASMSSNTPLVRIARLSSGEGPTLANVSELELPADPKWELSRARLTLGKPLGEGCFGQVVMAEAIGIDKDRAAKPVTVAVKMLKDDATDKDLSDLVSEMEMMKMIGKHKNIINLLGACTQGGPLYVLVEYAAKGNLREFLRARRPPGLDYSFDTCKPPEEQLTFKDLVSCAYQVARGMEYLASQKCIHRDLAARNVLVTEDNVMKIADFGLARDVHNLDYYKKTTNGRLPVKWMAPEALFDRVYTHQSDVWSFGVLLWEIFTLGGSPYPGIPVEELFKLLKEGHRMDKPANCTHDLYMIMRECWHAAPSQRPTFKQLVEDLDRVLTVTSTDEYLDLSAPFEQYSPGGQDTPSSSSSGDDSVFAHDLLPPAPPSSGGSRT
Chain of FGFR1 (407-822) (P11362 407-822): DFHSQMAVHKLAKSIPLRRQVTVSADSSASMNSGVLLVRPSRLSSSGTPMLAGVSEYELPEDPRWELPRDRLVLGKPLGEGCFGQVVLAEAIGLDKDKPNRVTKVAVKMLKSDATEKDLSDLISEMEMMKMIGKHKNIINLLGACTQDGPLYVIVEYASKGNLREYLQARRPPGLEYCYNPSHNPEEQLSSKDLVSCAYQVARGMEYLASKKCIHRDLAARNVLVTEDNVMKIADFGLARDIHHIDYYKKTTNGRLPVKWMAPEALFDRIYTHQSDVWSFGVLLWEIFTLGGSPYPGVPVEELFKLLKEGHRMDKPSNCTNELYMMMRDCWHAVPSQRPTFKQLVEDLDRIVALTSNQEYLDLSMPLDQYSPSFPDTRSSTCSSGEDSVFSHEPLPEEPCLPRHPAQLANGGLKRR
Chain of Tel-FGFR4 (P22455 other isoform, or with tags, fused parts or gaps): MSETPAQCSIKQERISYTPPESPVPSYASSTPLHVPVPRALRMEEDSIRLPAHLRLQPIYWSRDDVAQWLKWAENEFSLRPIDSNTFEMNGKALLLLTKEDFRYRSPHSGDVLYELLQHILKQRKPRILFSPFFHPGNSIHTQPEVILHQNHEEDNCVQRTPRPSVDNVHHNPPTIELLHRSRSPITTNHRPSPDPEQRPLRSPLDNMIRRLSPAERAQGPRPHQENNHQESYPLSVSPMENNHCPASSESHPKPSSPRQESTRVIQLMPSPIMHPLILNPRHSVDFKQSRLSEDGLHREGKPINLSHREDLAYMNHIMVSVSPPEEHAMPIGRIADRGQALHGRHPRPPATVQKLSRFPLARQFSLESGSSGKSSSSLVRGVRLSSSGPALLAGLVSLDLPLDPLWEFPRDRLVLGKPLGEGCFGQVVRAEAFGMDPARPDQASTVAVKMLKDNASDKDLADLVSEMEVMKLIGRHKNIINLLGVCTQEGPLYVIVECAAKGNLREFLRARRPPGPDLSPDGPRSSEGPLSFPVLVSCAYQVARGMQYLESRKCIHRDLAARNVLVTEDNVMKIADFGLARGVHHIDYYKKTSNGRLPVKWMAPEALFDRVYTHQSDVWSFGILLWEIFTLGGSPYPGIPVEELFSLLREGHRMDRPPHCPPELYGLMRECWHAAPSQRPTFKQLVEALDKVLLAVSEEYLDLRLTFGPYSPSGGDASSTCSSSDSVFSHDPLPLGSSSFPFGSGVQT
Chain of FGFR4 (GST-FGFR4(388-802)) (P22455 388-802): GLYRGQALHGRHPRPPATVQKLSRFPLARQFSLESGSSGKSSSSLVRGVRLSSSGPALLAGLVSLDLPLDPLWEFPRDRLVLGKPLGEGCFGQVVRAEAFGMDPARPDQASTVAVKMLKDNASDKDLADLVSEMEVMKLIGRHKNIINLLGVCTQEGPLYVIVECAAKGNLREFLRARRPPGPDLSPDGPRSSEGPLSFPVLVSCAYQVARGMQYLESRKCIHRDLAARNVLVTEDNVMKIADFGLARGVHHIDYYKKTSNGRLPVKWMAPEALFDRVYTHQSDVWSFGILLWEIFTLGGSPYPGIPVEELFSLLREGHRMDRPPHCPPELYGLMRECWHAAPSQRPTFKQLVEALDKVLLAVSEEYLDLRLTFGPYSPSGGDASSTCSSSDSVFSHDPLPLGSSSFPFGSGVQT

As for `COCC(C)Oc1cc(NC(=O)N2CCCc3cc(CO)c(C=O)nc32)ncc1C#N` (racemic) [Example 48, N-(5-cyano-4-((1-methoxypropan-2-yl)oxy)pyridin-2-yl)-7-formyl-6-(hydroxymethyl)-3,4-dihydro-1,8-naphthyridine-1(2H)-carboxamide], the IC50 is above 10 µM in experiment [1]; 0.0032 µM in experiment [2]; above 10 µM in experiment [3]; 0.0088 µM in experiment [4]; above 10 µM in experiment [5].
Turning to `N#Cc1cnc(NC(=O)N2CCCc3cc(CO)c(C=O)nc32)cc1NCC1CCCOC1` (racemic) [Example 55, N-(5-cyano-4-(((tetrahydro-2H-pyran-3-yl)methyl)amino)pyridin-2-yl)-7-formyl-6-(hydroxymethyl)-3,4-dihydro-1,8-naphthyridine-1(2H)-carboxamide], the IC50 is above 10 µM in experiment [1], above 10 µM in experiment [3], above 10 µM in experiment [5] and 202 nM in experiment [6].
On to `N#Cc1ccc(NC(=O)N2CCC(O)c3ccc(C=O)nc32)nc1` (racemic) [Example 79, N-(5-cyanopyridin-2-yl)-7-formyl-4-hydroxy-3,4-dihydro-1,8-naphthyridine-1(2H)-carboxamide], for which the IC50 in experiment [1] is above 10 µM; in experiment [2] it was 0.0325 µM; in experiment [3] it was above 10 µM; in experiment [4], 0.194 µM; in experiment [5] it was above 10 µM.
Take `COCCNc1cc(NC(=O)N2CCCc3cc(N4CCC(C)C4=O)c(C=O)nc32)ncc1C#N` (racemic) [Example 261, N-(5-cyano-4-((2-methoxyethyl)amino)pyridin-2-yl)-7-formyl-6-(3-methyl-2-oxopyrrolidin-1-yl)-3,4-dihydro-1,8-naphthyridine-1(2H)-carboxamide]: the IC50 in experiment [1] is above 10 µM; in experiment [3] it was above 10 µM; in experiment [5], above 10 µM; in experiment [6] it was 2540 nM.
Regarding `N#Cc1cnc(NC(=O)N2CCCc3ccc(C=O)nc32)cn1` [Example 12, N-(5-cyanopyrazin-2-yl)-7-formyl-3,4-dihydro-1,8-naphthyridine-1(2H)-carboxamide], the IC50 in experiment [1], in experiment [3] and in experiment [5] was above 10 µM each time.
On to `COc1cc(NC(=O)N2CCCc3ccc(C=O)nc32)ncc1C#N` [Example 13, N-(5-cyano-4-methoxypyridin-2-yl)-7-formyl-3,4-dihydro-1,8-naphthyridine-1(2H)-carboxamide], for which the IC50 in experiment [1], in experiment [3] and in experiment [5] was above 10 µM throughout.
Turning to `O=Cc1ccc2c(n1)N(C(=O)Nc1ccc(C(F)(F)F)cn1)CCO2` [Example 14, 6-formyl-N-(5-(trifluoromethyl)pyridin-2-yl)-2H-pyrido[3,2-b][1,4]oxazine-4(3H)-carboxamide], the IC50 in experiment [1], in experiment [3] and in experiment [5] was above 10 µM throughout.
For the compound `CCOc1cc(NC(=O)N2CCCc3ccc(C=O)nc32)ncc1C#N` [Example 19, N-(5-cyano-4-ethoxypyridin-2-yl)-7-formyl-3,4-dihydro-1,8-naphthyridine-1(2H)-carboxamide], the IC50 in experiment [1], in experiment [3] and in experiment [5] was above 10 µM each time.
As to `COCCOc1cc(NC(=O)N2CCCc3ccc(C=O)nc32)ncc1C#N` [Example 23, N-(5-cyano-4-(2-methoxyethoxyl)pyridin-2-yl)-7-formyl-3,4-dihydro-1,8-naphthyridine-1(2H)-carboxamide], the IC50 in experiment [1], in experiment [3] and in experiment [5] was above 10 µM in each case.
Consider `CN(C)CCOc1cc(NC(=O)N2CCCc3ccc(C=O)nc32)ncc1C#N` [Example 38, N-(5-cyano-4-(2-(dimethylamino)ethoxy)pyridin-2-yl)-7-formyl-3,4-dihydro-1,8-naphthyridine-1(2H)-carboxamide], for which the IC50 in experiment [1], in experiment [3] and in experiment [5] was above 10 µM in each case.
For the compound `COCCOc1cc(NC(=O)N2CCCc3cc(CO)c(C=O)nc32)ncc1C#N` [Example 39, N-(5-cyano-4-(2-methoxyethoxyl)pyridin-2-yl)-7-formyl-6-(hydroxymethyl)-3,4-dihydro-1,8-naphthyridine-1(2H)-carboxamide], the IC50 in experiment [1], in experiment [3] and in experiment [5] was above 10 µM in each case.
For `N#Cc1cnc(NC(=O)N2CCCc3cc(CO)c(C=O)nc32)cc1O[C@@H]1CCOC1` [Example 49, (R)-N-(5-cyano-4-((tetrahydrofuran-3-yl)oxy)pyridin-2-yl)-7-formyl-6-(hydroxymethyl)-3,4-dihydro-1,8-naphthyridine-1(2H)-carboxamide], the IC50 in experiment [1], in experiment [3] and in experiment [5] was above 10 µM throughout.
`N#Cc1cnc(NC(=O)N2CCCc3cc(CO)c(C=O)nc32)cc1O[C@H]1CCOC1` [Example 50, (S)-N-(5-cyano-4-((tetrahydrofuran-3-yl)oxy)pyridin-2-yl)-7-formyl-6-(hydroxymethyl)-3,4-dihydro-1,8-naphthyridine-1(2H)-carboxamide]: the IC50 in experiment [1], in experiment [3] and in experiment [5] was above 10 µM in each case.
For the compound `CN1CC[C@@H](Oc2cc(NC(=O)N3CCCc4cc(CO)c(C=O)nc43)ncc2C#N)C1` [Example 54, (R)-N-(5-cyano-4-((1-methylpyrrolidin-3-yl)oxy)pyridin-2-yl)-7-formyl-6-(hydroxymethyl)-3,4-dihydro-1,8-naphthyridine-1(2H)-carboxamide], the IC50 in experiment [1], in experiment [3] and in experiment [5] was above 10 µM each time.
Turning to `COCCOc1cc(NC(=O)N2CCCc3cc(C4CC4)c(C=O)nc32)ncc1C#N` [Example 62, N-(5-cyano-4-(2-methoxyethoxyl)pyridin-2-yl)-6-cyclopropyl-7-formyl-3,4-dihydro-1,8-naphthyridine-1(2H)-carboxamide], the IC50 in experiment [1] was above 10 µM; in experiment [3] it was above 10 µM; in experiment [5], above 10 µM; in experiment [6], 599 nM.
In the case of `COCCOc1cc(NC(=O)N2CCCc3cc(C(F)F)c(C=O)nc32)ncc1C#N` [Example 63, N-(5-cyano-4-(2-methoxyethoxyl)pyridin-2-yl)-6-(difluoromethyl)-7-formyl-3,4-dihydro-1,8-naphthyridine-1(2H)-carboxamide], the IC50 in experiment [1], in experiment [3] and in experiment [5] was above 10 µM each time.
With `COCCOc1cc(NC(=O)N2CCCc3cc(CN(C)C)c(C=O)nc32)ncc1C#N` [Example 64, N-(5-cyano-4-(2-methoxyethoxyl)pyridin-2-yl)-6-((dimethylamino)methyl)-7-formyl-3,4-dihydro-1,8-naphthyridine-1(2H)-carboxamide], the IC50 in experiment [1] is above 10 µM; in experiment [2] it was 0.16 µM; in experiment [3] it was above 10 µM; in experiment [4] it was 0.713 µM; in experiment [5] it was above 10 µM.
For `COCCNc1cc(NC(=O)N2CCCc3cc(CO)c(C=O)nc32)ncc1C#N` [Example 80, N-(5-cyano-4-((2-methoxyethyl)amino)pyridin-2-yl)-7-formyl-6-(hydroxymethyl)-3,4-dihydro-1,8-naphthyridine-1(2H)-carboxamide], the IC50 in experiment [1], in experiment [3] and in experiment [5] was above 10 µM in each case.
On to `CC(C)Nc1cc(NC(=O)N2CCCc3cc(CN4CCN(C)CC4=O)c(C=O)nc32)ncc1C#N` [Example 95, N-(5-cyano-4-(isopropylamino)pyridin-2-yl)-7-formyl-6-((4-methyl-2-oxopiperazin-1-yl)methyl)-3,4-dihydro-1,8-naphthyridine-1(2H)-carboxamide], for which the IC50 in experiment [1] is above 10 µM; in experiment [3], above 10 µM; in experiment [5], above 10 µM; in experiment [6] it was 45 nM.
On to `COCCNc1cc(NC(=O)N2CCCc3cc(CN4CCOCC4=O)c(C=O)nc32)ncc1C#N` [Example 98, N-(5-cyano-4-((2-methoxyethyl)amino)pyridin-2-yl)-7-formyl-6-((3-oxomorpholino)methyl)-3,4-dihydro-1,8-naphthyridine-1(2H)-carboxamide], for which the IC50 in experiment [1], in experiment [3] and in experiment [5] was above 10 µM throughout.
As to `COCCNc1cc(NC(=O)N2CCCc3cc(CN(C)C(=O)COC)c(C=O)nc32)ncc1C#N` [Example 148, N-(5-cyano-4-((2-methoxyethyl)amino)pyridin-2-yl)-7-formyl-6-((2-methoxy-N-methylacetamido)methyl)-3,4-dihydro-1,8-naphthyridine-1(2H)-carboxamide], the IC50 in experiment [1] is above 10 µM; in experiment [3], above 10 µM; in experiment [5], above 10 µM; in experiment [6], 45.5 nM.
On to `N#Cc1ccc(NC(=O)N2CCCCc3ccc(C=O)nc32)nc1` [Example 201, N-(5-cyanopyridin-2-yl)-2-formyl-7,8-dihydro-5H-pyrido[2,3-b]azepine-9(6H)-carboxamide], for which the IC50 in experiment [1], in experiment [3] and in experiment [5] was above 10 µM each time.
Regarding `CC(C)Oc1cc(NC(=O)N2CCc3ccc(C=O)nc32)ncc1C#N` [Example 234, N-(5-cyano-4-isopropoxypyridin-2-yl)-6-formyl-2,3-dihydro-1H-pyrrolo[2,3-b]pyridine-1-carboxamide], the IC50 in experiment [1], in experiment [3] and in experiment [5] was above 10 µM throughout.
